Tested on: SYO-1 complex spheroid growth, percent test/control
Test: Anticancer human tumor SYO-1 cell line growth inhibition [Asc];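 note: compound exposure lasted 7 days after spheroids grew 3 days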;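 for viability, T/C: 100% = DMSO vehicle control viability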
Settings: for IC50: curve of first compound; for viability, T/C: stronger effect = lower value
How it was run: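 Concentration series start at each agent's clinical Cmax, or at 10 microM when none is established, and drop in half-log steps; agents are applied alone or together to complex spheroids built with HUVEC and hMSC.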

Cc1nc(N2CCC3(CC2)COC(C)C3N)c(CO)nc1Sc1ccnc(N)c1Cl (configuration not stated) + Cc1c(S(C)(=O)=O)c(-c2cc(F)cc(N3CCN(c4ccc(NS(=O)(=O)c5ccc(NC(CCN6CCC(C(=O)OCCCP(=O)(O)O)CC6)CSc6ccccc6)c(S(=O)(=O)C(F)(F)F)c5)cc4)CC3)c2)c(-c2ccc(Cl)cc2)n1C(C)C
IC50 (second compound 0.0316 µM): > 3 µM
IC50 (second compound 0.1 µM): > 3 µM
IC50 (second compound 0.316 µM): > 3 µM
IC50 (second compound 1 µM): > 3 µM
IC50 (second compound 3.16 µM): > 3 µM
IC50 (second compound 10 µM): > 3 µM
viability, T/C (second compound 0.0316 µM, first compound 0.00949 µM): 93.6%
viability, T/C (second compound 0.0316 µM, first compound 0.03 µM): 99.6%
viability, T/C (second compound 0.0316 µM, first compound 0.0949 µM): 91.7%
viability, T/C (second compound 0.0316 µM, first compound 0.3 µM): 98.8%
viability, T/C (second compound 0.0316 µM, first compound 0.949 µM): 110%
viability, T/C (second compound 0.0316 µM, first compound 3 µM): 102%
viability, T/C (second compound 0.1 µM, first compound 0.00949 µM): 96%
viability, T/C (second compound 0.1 µM, first compound 0.03 µM): 94.8%
viability, T/C (second compound 0.1 µM, first compound 0.0949 µM): 97.3%
viability, T/C (second compound 0.1 µM, first compound 0.3 µM): 103%
viability, T/C (second compound 0.1 µM, first compound 0.949 µM): 100%
viability, T/C (second compound 0.1 µM, first compound 3 µM): 93.7%
viability, T/C (second compound 0.316 µM, first compound 0.00949 µM): 91.3%
viability, T/C (second compound 0.316 µM, first compound 0.03 µM): 88.2%
viability, T/C (second compound 0.316 µM, first compound 0.0949 µM): 98.9%
viability, T/C (second compound 0.316 µM, first compound 0.3 µM): 97.5%
viability, T/C (second compound 0.316 µM, first compound 0.949 µM): 103%
viability, T/C (second compound 0.316 µM, first compound 3 µM): 92.3%
viability, T/C (second compound 1 µM, first compound 0.00949 µM): 92.2%
viability, T/C (second compound 1 µM, first compound 0.03 µM): 95.7%
viability, T/C (second compound 1 µM, first compound 0.0949 µM): 93.2%
viability, T/C (second compound 1 µM, first compound 0.3 µM): 99.9%
viability, T/C (second compound 1 µM, first compound 0.949 µM): 98.7%
viability, T/C (second compound 1 µM, first compound 3 µM): 91%
viability, T/C (second compound 3.16 µM, first compound 0.00949 µM): 95.3%
viability, T/C (second compound 3.16 µM, first compound 0.03 µM): 91.2%
viability, T/C (second compound 3.16 µM, first compound 0.0949 µM): 89%
viability, T/C (second compound 3.16 µM, first compound 0.3 µM): 91.4%
viability, T/C (second compound 3.16 µM, first compound 0.949 µM): 95.5%
viability, T/C (second compound 3.16 µM, first compound 3 µM): 89.3%
viability, T/C (second compound 10 µM, first compound 0.00949 µM): 84%
viability, T/C (second compound 10 µM, first compound 0.03 µM): 82.8%
viability, T/C (second compound 10 µM, first compound 0.0949 µM): 94.8%
viability, T/C (second compound 10 µM, first compound 0.3 µM): 87.2%
viability, T/C (second compound 10 µM, first compound 0.949 µM): 95.8%
viability, T/C (second compound 10 µM, first compound 3 µM): 78.5%

— PubChem BioAssay AID1963432 (Molecular Pharmacology Branch, DTP, NCI, 2024)
